Measured values from patent publication US11332459B2 (TEIJIN PHARMA LIMITED, priority 2017, dated 2022).
Counter-ions that a name gives are not always drawn.

Biological target: T1, human TRPC6 (Homo sapiens, UniProt Q9Y210)
T1 construct: expressed in transfected cells
T1 sequence (Q9Y210 1-931): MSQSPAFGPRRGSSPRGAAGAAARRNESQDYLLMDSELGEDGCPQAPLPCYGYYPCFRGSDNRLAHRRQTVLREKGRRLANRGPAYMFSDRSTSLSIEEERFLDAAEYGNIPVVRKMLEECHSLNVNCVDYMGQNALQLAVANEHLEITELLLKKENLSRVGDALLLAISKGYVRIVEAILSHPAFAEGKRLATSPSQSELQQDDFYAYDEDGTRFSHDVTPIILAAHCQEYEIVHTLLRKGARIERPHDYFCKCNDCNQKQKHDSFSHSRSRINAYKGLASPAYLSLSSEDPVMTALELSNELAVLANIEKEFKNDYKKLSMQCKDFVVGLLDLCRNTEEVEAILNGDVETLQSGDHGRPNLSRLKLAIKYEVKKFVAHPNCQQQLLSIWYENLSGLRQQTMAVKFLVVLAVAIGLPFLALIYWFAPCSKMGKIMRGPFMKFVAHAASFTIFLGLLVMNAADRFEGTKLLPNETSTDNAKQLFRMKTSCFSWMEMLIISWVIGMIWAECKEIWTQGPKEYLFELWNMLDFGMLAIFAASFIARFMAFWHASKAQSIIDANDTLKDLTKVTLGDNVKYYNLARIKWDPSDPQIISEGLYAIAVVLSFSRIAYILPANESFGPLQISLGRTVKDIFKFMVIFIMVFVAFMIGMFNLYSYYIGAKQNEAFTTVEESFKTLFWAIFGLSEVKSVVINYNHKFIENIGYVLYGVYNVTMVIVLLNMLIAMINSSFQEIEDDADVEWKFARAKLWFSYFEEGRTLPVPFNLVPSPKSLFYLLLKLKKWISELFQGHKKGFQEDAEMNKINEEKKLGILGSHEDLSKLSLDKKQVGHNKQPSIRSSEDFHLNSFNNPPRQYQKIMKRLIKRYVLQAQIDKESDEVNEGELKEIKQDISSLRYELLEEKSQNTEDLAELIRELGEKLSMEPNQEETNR
Experiment: TRPC6 calcium flux assay (FLIPR, OAG-stimulated calcium influx)
Assay type: cell-based
Conditions: HEK293 cells stably transfected with human TRPC6, read-out: hTRPC6 Potency
How it was run: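 HEK293 cells stably expressing human TRPC6, loaded with calcium dye 90–120 min at RT, then given compound for 25 min before OAG (50 uM final, 0.5% DMSO) in HEPES buffer pH 7.2 with 2 mM CaCl2. Background-subtracted FLIPR peak over 180 s normalized to OAG vs buffer; IC50 from dose plot.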

Question: For `N#Cc1ccc(Cn2c(N3C[C@@H]4OCCN[C@@H]4C3)nc3ccccc32)nc1` [Example 98, 6-((2-((4aR,7aS)-hexahydropyrrolo[3,4-b][1,4]oxazin-6(2H)-yl)-1H-benzo[d]imidazol-1-yl)methyl)nicotinonitrile hydrochloride], which IC50 is on record?
Answer: > 3750 nM

Question: Which IC50 does the source give for `N[C@@H]1CN(c2nc3cc(F)c(F)cc3n2CC(=O)N2C[C@@H]3[C@H](C2)C3(F)F)CC[C@H]1F` [Example 623, 2-(2-((3R,4R)-3-amino-4-fluoropiperidin-1-yl)-5,6-difluoro-1H-benzo[d]imidazol-1-yl)-1-((1R,5S)-6,6-difluoro-3-azabicyclo[3.1.0]hexan-3-yl)ethanone] here?
Answer: 89 nM

Question: For `N[C@@H]1CN(c2nc3cc(F)c(F)cc3n2Cc2ccc(F)cc2C(F)(F)F)CC[C@H]1F` [Example 356, (3R,4R)-1-(5,6-difluoro-1-(4-fluoro-2-(trifluoromethyl)benzyl)-1H-benzimidazol-2-yl)-4-fluoro-3-piperidinamine], which IC50 is on record?
Answer: 239 nM

Question: With `COc1ccc2nc(N3CCC[C@H](N)C3)n(Cc3ccc(C#N)cc3)c2n1` [Example 404, (S)-4-((2-(3-aminopiperidin-1-yl)-5-methoxy-3H-imidazo[4,5-b]pyridin-3-yl)methyl)benzonitrile hydrochloride] as the compound, how does the IC50 read?
Answer: 1.67 nM

Question: `CN(CC(F)(F)F)C(=O)Cn1c(N2CC[C@@H](F)[C@H](N)C2)nc2cc(C(F)(F)F)ccc21` [Example 580, 2-(2-((3R,4R)-3-amino-4-fluoropiperidin-1-yl)-5-(trifluoromethyl)-1H-benzo[d]imidazol-1-yl)-N-methyl-N-(2,2,2-trifluoroethyl)acetamide] was tested. Which IC50 did it give?
Answer: 365 nM

Question: How did the IC50 turn out when `CN[C@H]1CCCN(c2nc3ccccc3n2CC(=O)N2CCC2)C1` [Example 266, 1-(1-azetidinyl)-2-(2-((3S)-3-(methylamino)-1-piperidinyl)-1H-benzimidazol-1-yl)ethanone] was run?
Answer: 15800 nM

Question: How did the IC50 turn out when `N[C@@H]1CN(c2nc3cc(F)ccc3n2CC(=O)N2CCC2)CC[C@H]1F` [Example 514, 2-(2-((3R,4R)-3-amino-4-fluoropiperidin-1-yl)-5-fluoro-1H-benzo[d]imidazol-1-yl)-1-(azetidin-1-yl)ethan-1-one] was run?
Answer: 185 nM

Question: For `CN(CC(F)(F)F)C(=O)Cn1c(N2CC[C@H]3OCCN[C@@H]3C2)nc2ccc(F)cc21` [Example 488, 2-(6-fluoro-2-((4aR,8aR)-hexahydro-2H-pyrido[4,3-b][1,4]oxazin-6(5H)-yl)-1H-benzo[d]imidazol-1-yl)-N-methyl-N-(2,2,2-trifluoroethyl)acetamide], which IC50 is on record?
Answer: > 3750 nM

Question: With `N#Cc1cnc(Cn2c(N3CC[C@@H](F)[C@H](N)C3)nc3ccccc32)cn1` [Example 202, 5-((2-((3R,4R)-3-amino-4-fluoropiperidin-1-yl)-1H-benzo[d]imidazol-1-yl)methyl)pyrazine-2-carbonitrile] as the compound, how does the IC50 read?
Answer: 2.14 nM

Question: `CN(CC(F)(F)F)C(=O)Cn1c(N2CC[C@H](F)[C@H](N)C2)nc2ccc(F)cc21` [Example 462, 2-(2-((3R,4S)-3-amino-4-fluoropiperidin-1-yl)-6-fluoro-1H-benzo[d]imidazol-1-yl)-N-methyl-N-(2,2,2-trifluoroethyl)acetamide] was tested. Which IC50 did it give?
Answer: 29.4 nM

Question: With `CN(CC(F)(F)F)C(=O)Cn1c(N2CC[C@@H]3OCCN[C@H]3C2)nc2cc(F)ccc21` [Example 493, 2-(5-fluoro-2-((4aS,8aS)-hexahydro-2H-pyrido[4,3-b][1,4]oxazin-6(5H)-yl)-1H-benzo[d]imidazol-1-yl)-N-methyl-N-(2,2,2-trifluoroethyl)acetamide] as the compound, how does the IC50 read?
Answer: > 3750 nM

Question: `Cc1cc2nc(N3CC[C@@H](F)[C@H](N)C3)n(Cc3ccc(C#N)cn3)c2cc1Cl` [Example 112, 6-((2-((3R,4R)-3-amino-4-fluoro-1-piperidinyl)-6-chloro-5-methyl-1H-benzimidazol-1-yl)methyl)-3-pyridinecarbonitrile] was tested. Which IC50 did it give?
Answer: 0.281 nM

Question: Which IC50 does the source give for `Cc1nc(Cn2c(N3CC[C@@H](F)[C@H](N)C3)nc3cc(F)c(F)cc32)oc1C` [Example 575, (3R,4R)-1-(1-((4,5-dimethyloxazol-2-yl)methyl)-5,6-difluoro-1H-benzo[d]imidazol-2-yl)-4-fluoropiperidin-3-amine] here?
Answer: 155 nM

Question: With `N[C@@H]1CN(c2nc3cc(F)c(F)cc3n2Cc2c(Cl)cccc2Cl)CC[C@H]1F` [Example 265, (3R,4R)-1-(1-(2,6-dichlorobenzyl)-5,6-difluoro-1H-benzimidazol-2-yl)-4-fluoro-3-piperidinamine] as the compound, how does the IC50 read?
Answer: 2860 nM

Question: Which IC50 does the source give for `N#Cc1ccc(Cn2c(N3CC[C@@H](F)[C@H](N)C3)nc3c(C#N)cccc32)nc1` [Example 11, 2-((3R,4R)-3-amino-4-fluoropiperidin-1-yl)-1-((5-cyanopyridin-2-yl)methyl)-1H-benzo[d]imidazole-4-carbonitrile] here?
Answer: 1.79 nM

Question: `CN(CC(F)F)C(=O)Cn1c(N2CC[C@@H](F)[C@H](N)C2)nc2cc(F)c(F)cc21` [Example 601, 2-(2-((3R,4R)-3-amino-4-fluoropiperidin-1-yl)-5,6-difluoro-1H-benzo[d]imidazol-1-yl)-N-(2,2-difluoroethyl)-N-methylacetamide] was tested. Which IC50 did it give?
Answer: 5.56 nM

Question: `C[C@H](c1ccc(Cl)c(Cl)c1)n1c(N2CC[C@@H](F)[C@H](N)C2)nc2cc(F)c(F)cc21` [Example 332, (3R,4R)-1-(1-((1R)-1-(3,4-dichlorophenyl)ethyl)-5,6-difluoro-1H-benzimidazol-2-yl)-4-fluoro-3-piperidinamine] was tested. Which IC50 did it give?
Answer: 3200 nM

Question: How did the IC50 turn out when `CN(C(=O)Cn1c(N2CC[C@@H](F)[C@H](N)C2)nc2cc(F)c(F)cc21)C1CCOC1` (stereo partly drawn) [Example 611, 2-(2-((3R,4R)-3-amino-4-fluoropiperidin-1-yl)-5,6-difluoro-1H-benzo[d]imidazol-1-yl)-N-methyl-N-(tetrahydrofuran-3-yl)acetamide] was run?
Answer: 22.4 nM

Question: Which IC50 does the source give for `CCC1CN(C(=O)Cn2c(N3CC[C@@H](F)[C@H](N)C3)nc3cc(F)c(F)cc32)CCO1` (stereo partly drawn) [Example 513, 2-(2-((3R,4R)-3-amino-4-fluoropiperidin-1-yl)-5,6-difluoro-1H-benzo[d]imidazol-1-yl)-1-(2-ethylmorpholino)ethan-1-one] here?
Answer: 183 nM

Question: How did the IC50 turn out when `CN(C(=O)Cn1c(N2CC[C@@H](F)[C@H](N)C2)nc2ccc(F)cc21)[C@@H]1CCOC1` [Example 665, 2-(2-((3R,4R)-3-amino-4-fluoropiperidin-1-yl)-6-fluoro-1H-benzo[d]imidazol-1-yl)-N-methyl-N-((R)-tetrahydrofuran-3-yl)acetamide] was run?
Answer: 584 nM

Question: With `N#Cc1ccc(Cn2c(N3CC[C@@H](F)[C@H](N)C3)nc3cc(Cl)cnc32)nc1` [Example 92, 6-((2-((3R,4R)-3-amino-4-fluoropiperidin-1-yl)-6-chloro-3H-imidazo[4,5-b]pyridin-3-yl)methyl)nicotinonitrile] as the compound, how does the IC50 read?
Answer: 43.8 nM

Question: For `N[C@@H]1CN(c2nc3cc(F)c(F)cc3n2C2CCCN(c3ccccc3)C2=O)CC[C@H]1F` (mixture of isomers) [Example 239, 3-(2-((3R,4R)-3-amino-4-fluoropiperidin-1-yl)-5,6-difluoro-1H-benzo[d]imidazol-1-yl)-1-phenylpiperidin-2-one], which IC50 is on record?
Answer: 562 nM

Question: `N#Cc1ccc2nc(N3CC[C@@H](F)[C@H](N)C3)n(Cc3ncc(Br)cn3)c2c1` [Example 200, 2-((3R,4R)-3-amino-4-fluoropiperidin-1-yl)-1-((5-bromopyrimidin-2-yl)methyl)-1H-benzo[d]imidazole-6-carbonitrile] was tested. Which IC50 did it give?
Answer: 2.18 nM

Question: Which IC50 does the source give for `N#CCCN(C(=O)Cn1c(N2CC[C@@H](F)[C@H](N)C2)nc2cc(F)c(F)cc21)C1CCOCC1` [Example 656] here?
Answer: > 3750 nM
